Patent US11339442B2, “Methods of detecting insulator dysfunction and oncogene activation for screening, diagnosis and treatment of patients in need thereof” (THE GENERAL HOSPITAL CORPORATION, priority 2015, dated 2022)
“Also recorded” adds a separate entry of the source. Like-named read-outs stand apart in the source and are kept apart here.

What was measured:
Factor VII = details: LNP siRNA systems containing the lipid; cited from earlier work
[1] = tested on: CpG in the CTCF motif of the boundary adjacent to PDGFRA; assay: DNA methylation quantification (bisulfite sequencing), BT142 gliomaspheres treated with demethylating agent; format: cell-based, human; details: 5 μM 5-azacytidine for 8 days
Method: DNA Methylation Quantification-DNA methylation was analyzed in two ways. For gliomaspheres, genomic DNA was isolated via QiaAmp® DNA minikit (Qiagen®) and subjected to Bisulfite Conversion (EZ DNA Methylation GoldTM Kit-Zymo Research). Bisulfite converted DNA specific to the CTCF binding site (defined by JASPAR^40) in the boundary adjacent to PDGFRA was amplified using the following primers [NT]

[2] = tested on: acute leukemia of all cell types in relapse; details: end of trial, cited from earlier work
CTCF = CTCF occupancy ChIP qPCR at the boundary adjacent to PDGFRA, BT142 gliomaspheres; format: cell-based, human; details: 5 μM 5-azacytidine for 8 days
Method: Chromatin Immunoprecipitation-Chromatin Immunoprecipitation (ChIP) and sequencing (ChIP-Seq) was performed as described previously^32. Briefly, cultured cells or minced tissue was fixed in 1% formaldehyde and snap frozen in liquid nitrogen and stored at -80° C. for at least overnight. […] ChIP DNA was used to generate sequencing libraries by end repair (End-ItTM DNA repair kit, Epicentre), 3' A base overhang addition via Klenow fragment (NEB), and ligation of barcoded sequencing adapters. Barcoded fragments were amplified via PCR. […] Occupancy of the CTCF site in the boundary element adjacent to the PDGFRA locus was quantified by ChIP qPCR, using the following primers: […] CTCF peak intensity was further normalized as ratio to two invariant peaks, at PSMB1 and SPG11, using the following primers: PSMB1[NT]

newly diagnosed AML = details: cited from earlier work
PDGFRA = details: BT142 gliomaspheres, 5 μM 5-azacytidine for 8 days
[3] = preclinical studies; cited from earlier work
FIP1L1-PDGFRA = molecular target: T1, FIP1L1-PDGFRA (Homo sapiens, UniProt P16234); details: FIP1L1-PDGFRA versus BCR-ABL; cited from earlier work
T1 construct: the other entry of the earlier key: FIP1L1 (Q6UN15, Pre-mRNA 3'-end-processing factor FIP1)

[4] = compared with aza; cited from earlier work
GSC6 gliomaspheres = assay: Cell growth assay (CellTiter-Glo), GSC6 cells expressing CRISPR; format: cell-based, human; details: 1 μM Dasatinib or 500 nM Crenolanib
Method: Cell Growth Assay—For the cell growth assay, 2,500 dissociated viable GSC6 cells expressing CRISPR and either GFP or Insulator targeting sgRNA (see above) were plated in […], of media in an opaque-walled tissue culture 96 well plate, in 1 μM Dasatinib, 500 nM Crenolanib, or equivalent DMSO (1:10,000) as a vehicle control. Cell growth was analyzed at days 3, 5, and 7 for Dasatinib, or days 3, 7, and 10 for Crenolanib, using CellTiter-Glo® reagent (Promega™) following the manufacturer's protocol. Data was normalized across days using an ATP standard curve.

MDS (RAEBT) = details: patients with RAEBT, 3-day course 15 mg/m^2 daily; cited from earlier work
CMLs in transformation = details: first 13 patients, 100 mg/m^2 over 6 h every 12 h for 5 days; cited from earlier work
advanced leukemia or MDS = details: cited from earlier work
[5] = preclinical in vitro studies; cited from earlier work
PDGFRA insulator = assay: ChIP-qPCR for CTCF and H3K9me3 after dCas9 / dCas9-KRAB recruitment, HEK293 cells; format: cell-based
Method: Applicants performed these experiments at the PDGFRA insulator in HEK293 cells (FIG. 16A, Top). […] HEK293 cells were seeded into 100 mm cell culture dishes two days before transfection and grown to 60-70% confluency. […] of either dCas9 or dCas9-KRAB constitutive expression vector (JDS286 and Addgene Plasmid #50919 respectively) (FIG. 18) and 1 ug of guide RNA expression vector (pXPR1_noCas, Broad GPP) (FIG. 19) were mixed in 450ul OptiMEM. 27ul of FugeneHD was added and tubes were vortexed for two times one second, incubated at room temp for ten minutes and added dropwise to cell culture dishes.
Cells were harvested three days after transfection and crosslinked in 1% formaldehyde at 37 C for 10 min. ChIP-qPCR was performed as previously described. Briefly, cells were lysed on ice, sonicated in 0.3% SDS for 5 minutes total time at ˜10W power, incubated with the relevant antibody overnight at 4C with rotation after dilution to 0.1% SDS. Antibody-bound chromatin was isolated using protein G magnetic beads. Bound complex is washed several times and eluted off the beads at 65C for 1h with shaking. Eluted complex is treated with RNase for 30 min at 37C and protinase K for 3h at 63C while crosslinks are reversed concurrently. IP DNA is cleaned up using a 2× Ampure XP DNA bead cleanup as per manufacturer's instructions.

OLIG2 insulator = assay: as above; format: cell-based

T1 sequence (P16234 593-1089 limits assumed): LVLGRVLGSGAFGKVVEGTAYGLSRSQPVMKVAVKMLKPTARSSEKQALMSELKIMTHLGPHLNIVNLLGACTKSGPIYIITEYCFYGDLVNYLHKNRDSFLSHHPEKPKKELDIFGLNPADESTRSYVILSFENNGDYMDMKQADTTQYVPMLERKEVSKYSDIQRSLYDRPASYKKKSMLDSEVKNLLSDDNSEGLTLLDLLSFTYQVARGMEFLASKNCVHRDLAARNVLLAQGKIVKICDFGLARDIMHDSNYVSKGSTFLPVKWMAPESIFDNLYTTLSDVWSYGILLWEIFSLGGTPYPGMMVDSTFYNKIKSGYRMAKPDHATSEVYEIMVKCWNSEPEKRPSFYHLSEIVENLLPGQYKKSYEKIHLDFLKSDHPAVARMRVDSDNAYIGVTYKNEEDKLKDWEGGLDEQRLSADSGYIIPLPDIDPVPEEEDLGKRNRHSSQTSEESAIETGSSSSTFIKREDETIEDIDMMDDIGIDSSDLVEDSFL

1,2-dilinoleyloxy-keto-N,N-dimethyl-3-aminopropane [DLinKDMA]
gene silencing potency in hepatocytes in vivo (rank series) (Factor VII): DLinKC2-DMA>DLinKDMA>DLinDMA>>DLinDAP

Nc1ncn([C@@H]2O[C@H](CO)[C@@H](O)[C@H]2O)c(=O)n1 [5-aza, 5-azacytidine]
reduction of methylation of the CTCF motif [1]: ~2.5 fold | overall response rate ([2]; adult patients with acute leukemia in relapse): 9.2% | patients achieving complete remission [2]: nine | patients achieving partial remission [2]: two | increase of CTCF occupancy (CTCF): ~1.7 fold | patients with complete or partial remission (newly diagnosed AML; 15 adult patients, 75 mg/m^2 daily s.c. for 7 days every 4 weeks): Eight | average number of cycles to remission (newly diagnosed AML; in vivo): three | duration of response, average (newly diagnosed AML; patients who achieved complete remission): 8 (range, 6-13) cycles | duration of response, average (newly diagnosed AML; patients who achieved partial remission): 3 (range, 2-3) cycles | down-regulation of PDGFRA expression (PDGFRA): ~5 fold

C[C@@H](Nc1nc(N[C@H](C)C(F)(F)F)nc(-c2cccc(Cl)n2)n1)C(F)(F)F [AG-881]
blood-brain barrier penetration [3]: fully penetrate the blood-brain barrier

CCCCC/C=C\C/C=C\CCCCCCCC(=O)OCC(CN(C)C)OC(=O)CCCCCCC/C=C\C/C=C\CCCCC (stereo not shown) [DLinDAP, 1,2-dilineoyl-3-dimethylammonium-propane]
gene silencing potency in hepatocytes in vivo (rank series) (Factor VII): DLinKC2-DMA>DLinKDMA>DLinDMA>>DLinDAP

CCCCC/C=C\C/C=C\CCCCCCCCOCC(CN(C)C)OCCCCCCCC/C=C\C/C=C\CCCCC (stereo not shown) [DLinDMA, 1,2-dilinoleyloxy-3-N,N-dimethylaminopropane]
gene silencing potency in hepatocytes in vivo (rank series) (Factor VII): DLinKC2-DMA>DLinKDMA>DLinDMA>>DLinDAP

CCCCC/C=C\C/C=C\CCCCCCCCC1(CCCCCCCC/C=C\C/C=C\CCCCC)OCC(CCN(C)C)O1 (stereo not shown) [DLinKC2-DMA, 1,2-dilinoleyl-4-(2-dimethylaminoethyl)-[1,3]-dioxolane]
gene silencing potency in hepatocytes in vivo (rank series) (Factor VII): DLinKC2-DMA>DLinKDMA>DLinDMA>>DLinDAP

Cc1ccc(NC(=O)c2ccc(CN3CCN(C)CC3)cc2)cc1Nc1nccc(-c2cccnc2)n1 [Imatinib]
IC50 lower as compared to BCR-ABL (FIP1L1-PDGFRA): 250 fold

O=c1ncccn1[C@@H]1O[C@H](CO)[C@@H](O)[C@H]1O [Zebularine]
stability [4]: more stable than aza

CC1(COc2ccc3c(c2)ncn3-c2ccc3cccc(N4CCC(N)CC4)c3n2)COC1 [crenolanib]
effect on the growth advantage of insulator CRISPR gliomaspheres (GSC6 gliomaspheres): abrogated | effect on the growth advantage of insulator CRISPR gliomaspheres (GSC6 gliomaspheres; listed as Crenolanib): eliminated

Nc1ncn([C@H]2C[C@H](O)[C@@H](CO)O2)c(=O)n1 [decitabine, 5-aza-2′-deoxycytidine]
percentage of responders (MDS (RAEBT)): 70% | adverse effect (CMLs in transformation): severe prolonged myelosuppression | complete response (CR) (advanced leukemia or MDS; 37 patients with AML): 14% | partial response (PR) (advanced leukemia or MDS; 37 patients with AML): 8% | response rate (advanced leukemia or MDS; comparison group to the higher doses / longer cycles): 45% | patients achieving CR (advanced leukemia or MDS; five patients with CML): two | patients achieving PR (advanced leukemia or MDS; five patients with CML): two | response rate (advanced leukemia or MDS; higher doses (20 mg/m^2 for 10 days) and longer treatment cycles (15 mg/m2 for 20 days)): 11% | patients in whom only one cycle of therapy was required to achieve a CR (advanced leukemia or MDS; in vivo): eight of nine | objective responses (advanced leukemia or MDS; overall, 48 patients): 33% | complete response (CR) (advanced leukemia or MDS; seven patients with MDS): 28.5% | patients achieving PR (advanced leukemia or MDS; seven patients with MDS): two

Cc1cn(-c2cc(NC(=O)c3ccc(C)c(Nc4nccc(-c5cccnc5)n4)c3)cc(C(F)(F)F)c2)cn1 [nilotinib]
potency relative to imatinib (factor) [5]: 20 to 50

dCas9: enzymatically inactive CRISPR enzyme recruited by guide RNA to a CTCF insulator
CTCF binding at the PDGFRA insulator (PDGFRA insulator): potently disrupts CTCF binding; also recorded: can reduce CTCF binding | CTCF binding at the OLIG2 insulator (OLIG2 insulator): can disrupt CTCF binding; also recorded: can reduce CTCF binding
